Data on 17 molecules can be found in patent US20140023611A1 (priority 2010, published 2014).

Where only a bound is given, the exact number is not on record here.

The nature of series [1]: Determination of compound Cmax and AUC after oral gavage (plasma LC-MS/MS). The conditions noted are these: Sprague-Dawley, rat, plasma, po. The class given is in vivo, Sprague-Dawley rats. As to the method: Sprague-Dawley rats were orally gavaged with test article at a nominal dose of 2.5 or 10 mg/kg and blood was collected at 0.5, 1, 2 and 4 h. Blood samples were processed to plasma using K2EDTA as an anticoaglulant. Plasma samples were treated with acetonitrile containing an internal standard, precipitated proteins removed by centrifugation. Supernatants were analyzed by LC-MS/MS and compound concentrations were determined by interpolation from a standard curve prepared in plasma. All compounds were orally dosed at the dosage shown, and pharmacokinetic parameters determined.
(§1) Sprague-Dawley rats were orally gavaged with test article at a nominal dose of 2.5 or 10 mg/kg and blood was collected at 0.5, 1, 2 and 4 h. Blood samples were processed to plasma using K2EDTA as an anticoaglulant. Plasma samples were treated with acetonitrile containing an internal standard, precipitated proteins removed by centrifugation. Supernatants were analyzed by LC-MS/MS and compound concentrations were determined by interpolated from a standard curve prepared in plasma. All compounds were orally dosed at the dosage shown, and pharmacokinetic parameters determined.
as §1

Series [2] addresses T1, rat NaP2b (SLC34A2) (Rattus norvegicus, UniProt Q9JJ09).
T1 construct: host or cells: HEK293
T1 sequence (Q9JJ09 1-695): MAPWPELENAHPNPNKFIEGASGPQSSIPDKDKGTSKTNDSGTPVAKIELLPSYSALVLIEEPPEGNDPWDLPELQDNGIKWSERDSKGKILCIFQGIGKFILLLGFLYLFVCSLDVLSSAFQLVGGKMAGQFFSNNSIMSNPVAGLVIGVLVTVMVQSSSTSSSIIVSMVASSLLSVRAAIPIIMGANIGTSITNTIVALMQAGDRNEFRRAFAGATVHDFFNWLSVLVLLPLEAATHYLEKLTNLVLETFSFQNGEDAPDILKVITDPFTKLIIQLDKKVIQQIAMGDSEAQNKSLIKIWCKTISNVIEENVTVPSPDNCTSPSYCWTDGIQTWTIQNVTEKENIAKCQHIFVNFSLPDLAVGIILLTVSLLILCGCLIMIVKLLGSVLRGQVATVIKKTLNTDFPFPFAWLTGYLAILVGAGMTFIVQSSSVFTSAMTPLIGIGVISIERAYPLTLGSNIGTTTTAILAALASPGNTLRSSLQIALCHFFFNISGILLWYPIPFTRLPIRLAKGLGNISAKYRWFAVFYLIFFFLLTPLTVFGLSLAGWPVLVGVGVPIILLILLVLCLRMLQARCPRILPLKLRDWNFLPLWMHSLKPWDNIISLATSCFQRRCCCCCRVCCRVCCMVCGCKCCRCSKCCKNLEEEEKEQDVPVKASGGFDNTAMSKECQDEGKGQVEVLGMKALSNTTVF
Kind of series: Inhibition of NaP2b-mediated Pi (33P) uptake in transfected HEK293 cells, rat NaP2b. The class given is cell-based. Conditions: 33P Pi uptake, 0.1 mM phosphate, value given as pIC50 range. The procedure, abridged:
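The cells transiently expressed NaP2b after Lipofectamine transfection. Each compound was run in duplicate over twelve concentrations, 0.1 nM–30 uM.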

Setting [3] is: Structure (I) examples, Table 15, actual oral dose 3-15 mg/kg, plasma 0.5-4 h.
The mark [4] stands for this setting: Structure (II) examples, Table 6, actual oral dose 7.6-11 mg/kg.
Where [5] appears, read: Structure (III) examples, Table 6, actual oral dose 8.9-10 mg/kg.

In general, AUC refers to concentration integrated over time. In general, Cmax refers to the maximum level reached in the sampled fluid or tissue. For the molecule `O=C(O)CCSCc1cccc(C(=O)Nc2ccc(N3CCCCC3)cc2-c2cc(C(=O)NCc3cccc(C(F)(F)F)c3)ccn2)c1` [Example 1.1, 3-(3-((2-(4-((3-(Trifluoromethyl)benzyl)carbamoyl)pyridin-2-yl)-4-(piperidin-1-yl)phenyl)carbamoyl)benzylthio)propanoic acid], in series [1] (setting [3]), the AUC is greater than 50 ng·h/mL and the Cmax is less than 50 ng/mL.

In series [1] (setting [4]), `O=C(O)CCSCc1cccc(C(=O)Nc2ccc(N3CCCCC3)cc2C(=O)Nc2ccn(-c3cccc(C(F)(F)F)c3)n2)c1` [Example 7] registered an AUC of 467 ng·h/mL and a Cmax of 393 ng/mL.

In series [1] (setting [4]), `CN(CCN1CCOCC1)C(=O)c1cccc(C(=O)Nc2ccc(N3CCCCC3)cc2C(=O)Nc2ccn(-c3cccc(C(F)(F)F)c3)n2)c1` [Example 11] registered an AUC of 9.8 ng·h/mL and a Cmax of 5 ng/mL.

In the case of `CN(CCN1CCOCC1)C(=O)c1cccc(C(=O)Nc2ccc(N3CCCCC3)cc2C(=O)Nc2cnc(-c3ccccc3)nc2)c1` [Example 11], in series [1] (setting [5]), the AUC came out at 140 ng·h/mL and the Cmax was 70 ng/mL.

In series [1] (setting [4]), `CN(CCOCCOCCOCCC(=O)O)C(=O)c1cccc(C(=O)Nc2ccc(N3CCCCC3)cc2C(=O)Nc2ccn(-c3cccc(C(F)(F)F)c3)n2)c1` [Example 15] displayed an AUC of 11 ng·h/mL and a Cmax of 10 ng/mL.

`CN(CCN1CCOCC1)C(=O)c1cccc(C(=O)Nc2ccc(OC3CCC3)cc2-c2cc(C(=O)NCc3cccc(C(F)(F)F)c3)ccn2)c1` [Example 26]: in series [1] (setting [3]), the AUC is less than 30 ng·h/mL and the Cmax is less than 30 ng/mL.

In series [1] (setting [4]), `O=C(O)CCOCCOCCOCCNC(=O)Cc1cccc(SCc2cccc(C(=O)Nc3ccc(N4CCCCC4)cc3C(=O)Nc3ccn(-c4cccc(C(F)(F)F)c4)n3)c2)c1` [Example 26] showed a Cmax of 3 ng/mL.

As usually defined, the IC50 is the midpoint of a concentration-inhibition curve. For the molecule `O=C(O)CCCNC(=O)Cc1cccc(SCc2cccc(C(=O)Nc3ccc(N4CCCCC4)cc3-c3cc(C(=O)NCc4cccc(C(F)(F)F)c4)ccn3)c2)c1` [Example 141], the IC50 in series [2] was 1 to 7.94 µM. For the same molecule, in series [1] (setting [3]), the AUC was greater than 50 ng·h/mL and the Cmax was greater than 50 ng/mL.

In series [2], `COCCOCCOCCOCCOCCOCCOCCOCCNC(=O)[C@@H]1CCCN1CCN(C)C(=O)c1cccc(C(=O)Nc2ccc(N3CCCCC3)cc2-c2cc(C(=O)N[C@H]3CCCc4ccccc43)ccn2)c1` [Example 195, N^1-(2-((S)-2-(2,5,8,11,14,17,20,23-octaoxapentacosan-25-ylcarbamoyl)pyrrolidin-1-yl)ethyl)-N-methyl-N^3-(4-(piperidin-1-v)-2-(4-(((S)-1,2,3,4-tetrahydronaphthalen-1-yl)carbamoyl)pyridin-2-yl)phenyl)isophthalamide] showed an IC50 of 1 to 7.94 µM. In addition, in series [1] (setting [3]), the AUC is less than 10 ng·h/mL and the Cmax is less than 10 ng/mL.

With `COCCN(C)C(=O)N1CCN(CCN(C)C(=O)c2cccc(C(=O)Nc3ccc(N4CCCCC4)cc3-c3cc(C(=O)NCc4cccc(C(F)(F)F)c4)ccn3)c2)CC1` [Example 211, N1-(2-(4-((2-methoxyethyl)(methyl)carbamoyl)piperazin-1-yl)ethyl)-N1-methyl-N3-(4-(piperidin-1-yl)-2-(4-(3-(trifluoromethyl)benzylcarbamoyl)pyridin-2-yl)phenyl)isophthalamide], the IC50 in series [2] was 1 to 7.94 µM. Also, in series [1] (setting [3]), the AUC is less than 30 ng·h/mL and the highest concentration (Cmax) was less than 10 ng/mL.

`CN(C)C(=O)C1CCN(CCN(C)C(=O)c2cccc(C(=O)Nc3ccc(N4CCCCC4)cc3-c3cc(C(=O)N[C@H]4CCCc5ccccc54)ccn3)c2)CC1` [Example 218, (S)—N1-(2-(4-(dimethylcarbamoyl)piperidin-1-yl)ethyl)-N1-methyl-N3-(4-(piperidin-1-yl)-2-(4-(1,2,3,4-tetrahydronaphthalen-1-ylcarbamoyl)pyridin-2-yl)phenyl)isophthalamide] gave a 50% inhibitory concentration (IC50) in series [2] of 1 to 7.94 µM. In series [1] (setting [3]), the AUC was less than 30 ng·h/mL and the Cmax is less than 10 ng/mL.

Turning to `CN(CCOCCOCCOCCC(=O)O)C(=O)c1cccc(C(=O)Nc2ccc(N3CCCCC3)cc2-c2cc(C(=O)N[C@H]3CCCc4ccccc43)ccn2)c1` [Example 249, 3-[2-(2-{2-[N-methyl-1-(3-{[4-(piperidin-1-yl)-2-(4-{[(1S)-1,2,3,4-tetrahydronaphthalen-1-yl]carbamoyl}pyridin-2-yl)phenyl]carbamoyl}phenyl)formamido]ethoxy}ethoxy)ethoxy]propanoic acid], in series [2], the IC50 was 1 to 7.94 µM. Besides, in series [1] (setting [3]), the AUC is less than 30 ng·h/mL and the Cmax is less than 10 ng/mL.

`CCN(CC)c1ccc(NC(=O)c2cccc(C(=O)N(C)CCN(C)CCOCCOCCOCCNC(=O)C3CCOCC3)c2)c(-c2cc(C(=O)N[C@H]3CCCc4ccccc43)ccn2)c1` [Example 343, (S)—N^1-(4-(Diethylamino)-2-(4-(1,2,3,4-tetrahydronaphthalen-1-ylcarbamoyl)pyridin-2-yl)phenyl)-N^3-methyl-N^3-(14-methyl-1-oxo-1-(tetrahydro-2H-pyran-4-yl)-5,8,11-trioxa-2,14-diazahexadecan-16-yl)isophthalamide]: in series [2], the IC50 was 1 to 7.94 µM.

For the molecule `CCN(CC)c1ccc(NC(=O)c2cccc(C(=O)N(C)CCN(C)CCOCCOCCOCCNC(=O)c3cscn3)c2)c(-c2cc(C(=O)N[C@H]3CCCc4ccccc43)ccn2)c1` [Example 344, (S)—N-(4-(Diethylamino)-2-(4-(1,2,3,4-tetrahydronaphthalen-1-ylcarbamoyl)pyridin-2-yl)phenyl)-N^3-methyl-N^3-(14-methyl-1-oxo-1-(thiazol-4-yl)-5,8,11-trioxa-2,14-diazahexadecan-16-yl)isophthalamide], in series [2], the IC50 is less than 1 µM.

Turning to `CCN(CC)c1ccc(NC(=O)c2cccc(C(=O)N(C)CCN(C)CCOCCOCCOCCNC(=O)c3ccc(O)cc3)c2)c(-c2cc(C(=O)N[C@H]3CCCc4ccccc43)ccn2)c1` [Example 345, (S)—N^1-(4-(Diethylamino)-2-(4-(1,2,3,4-tetrahydronaphthalen-1-ylcarbamoyl)pyridin-2-yl)phenyl)-N^3-(1-(4-hydroxyphenyl)-14-methyl-1-oxo-5,8,11-trioxa-2,14-diazahexadecan-16-yl)-N^3-methylisophthalamide], the IC50 in series [2] is 1 to 7.94 µM.

Turning to `CCN(CC)c1ccc(NC(=O)c2cccc(C(=O)N(C)CCN(C)CCOCCOCCOCCNC(=O)C(C)(C)C)c2)c(-c2cc(C(=O)NCc3cccc(C(F)(F)F)c3)ccn2)c1` [Example 346, N2-(4-(diethylamino)-2-(4-(3-(trifluoromethyl)benzylcarbamoyl)pyridin-2-yl)phenyl)-N^3-methyl-N^3-(3,17,17-trimethyl-16-oxo-6,9,12-trioxa-3,15-diazaoctadecyl)isophthalamide], the “pIC50 range for rat Nap2b” value in series [2] is 5.1-6.0.

For `O=C(O)CCOCCOCCOCCOCCCc1cccc(C(=O)Nc2ccc(OC3CCCC3)cc2-c2cc(C(=O)N[C@H]3CCCc4ccccc43)ccn2)c1` [Example 347, (S)-16-(3-(4-(cyclopentyloxy)-2-(4-(1,2,3,4-tetrahydronaphthalen-1-ylcarbamoyl)pyridin-2-yl)phenylcarbamoyl)phenyl)-4,7,10,13-tetraoxahexadecan-1-oic acid], in series [2], the IC50 is less than 1 µM.
